Experimental findings from ChEMBL document CHEMBL1153872, “Synthesis, analgesic, anti-inflammatory and antimicrobial studies of 2,4-dichloro-5-fluorophenyl containing thiazolotriazoles” (2009) are described below.

Holding throughout (assay type): functional
The subject of experiment [1] is Mus musculus. As to the kind of experiment: Analgesic activity in albino mouse assessed as response latency time to pain stimulus at 5 mg/kg, ip after 1 hr by hot plate method. The following applies: route intraperitoneal. A general note: Thermal pain tests record how soon the animal reacts.
Experiment [2] concerns Mus musculus. Put plainly: Analgesic activity in albino mouse assessed as response latency time to pain stimulus at 5 mg/kg, ip after 3 hrs by hot plate method. The following applies: route intraperitoneal.
The test system of experiment [3] is Rattus norvegicus. As to the kind of experiment: Antiinflammatory activity in Wister albino rat assessed as inhibition carrageenan-induced paw edema at 2 mg/kg, po administered 30 mins before carrageenan challenge measured after 3 hrs relative to control. For orientation: The carrageenan paw model is a standard test of acute inflammation.
Experiment [4] relates to Rattus norvegicus. As to the kind of experiment: Antiinflammatory activity in Wister albino rat assessed as inhibition of carrageenan-induced paw edema at 50 mg/kg, po administered 30 mins before carrageenan challenge measured after 3 hrs relative to control.
Experiment [5] has as its system Mus musculus. Put plainly: Analgesic activity in albino mouse assessed as response latency time to pain stimulus at 25 mg/kg, po after 1 hr by hot plate method. On the set-up: unit not given here.
Experiment [6] concerns Mus musculus. Put plainly: Analgesic activity in albino mouse assessed as response latency time to pain stimulus at 25 mg/kg, po after 3 hrs by hot plate method. Also on record: unit not given here.
Experiment [7] concerns Staphylococcus aureus. Put plainly: Antibacterial activity against Staphylococcus aureus after 24 hrs by disk diffusion method.
The subject of experiment [8] is Staphylococcus aureus. As to the kind of experiment: Antibacterial activity against Staphylococcus aureus after 24 hrs by broth dilution technique. On the technique in general: In broth dilution the organism is exposed to a series of concentrations in liquid medium.
In experiment [9] the test system is Escherichia coli. Put plainly: Antibacterial activity against Escherichia coli after 24 hrs by disk diffusion method.
In experiment [10] the test system is Escherichia coli. As to the kind of experiment: Antibacterial activity against Escherichia coli after 24 hrs by broth dilution technique.
The subject of experiment [11] is Pseudomonas aeruginosa. As to the kind of experiment: Antibacterial activity against Pseudomonas aeruginosa after 24 hrs by disk diffusion method.
In experiment [12] the test system is Pseudomonas aeruginosa. As to the kind of experiment: Antibacterial activity against Pseudomonas aeruginosa after 24 hrs by broth dilution technique.
Experiment [13] has as its system Klebsiella pneumoniae. Put plainly: Antibacterial activity against Klebsiella pneumoniae after 24 hrs by disk diffusion method.
The test system of experiment [14] is Klebsiella pneumoniae. As to the kind of experiment: Antibacterial activity against Klebsiella pneumoniae after 24 hrs by broth dilution technique.
Experiment [15] relates to Streptococcus pyogenes. As to the kind of experiment: Antibacterial activity against Streptococcus pyogenes after 24 hrs by disk diffusion method.
Experiment [16] concerns Streptococcus pyogenes. Put plainly: Antibacterial activity against Streptococcus pyogenes after 24 hrs by broth dilution technique.
In experiment [17] the test system is Candida albicans. Put plainly: Antifungal activity against Candida albicans after 3 to 4 days by agar diffusion method.
For experiment [18], the system named is Candida albicans. Put plainly: Antifungal activity against Candida albicans after 48 hrs by twofold broth dilution method.
Experiment [19] deals with Aspergillus niger. Put plainly: Antifungal activity against Aspergillus niger after 3 to 4 days by agar diffusion method.
The subject of experiment [20] is Aspergillus niger. As to the kind of experiment: Antifungal activity against Aspergillus niger after 48 hrs by twofold broth dilution method.
Experiment [21] deals with Aspergillus fumigatus. Put plainly: Antifungal activity against Aspergillus fumigatus after 3 to 4 days by agar diffusion method.
In experiment [22] the test system is Aspergillus fumigatus. Put plainly: Antifungal activity against Aspergillus fumigatus after 48 hrs by twofold broth dilution method.
Experiment [23] has as its system Trichophyton mentagrophytes. Put plainly: Antifungal activity against Trichophyton mentagrophytes after 3 to 4 days by agar diffusion method.
For experiment [24], the system named is Trichophyton mentagrophytes. As to the kind of experiment: Antifungal activity against Trichophyton mentagrophytes after 48 hrs by twofold broth dilution method.
The subject of experiment [25] is Talaromyces marneffei. As to the kind of experiment: Antifungal activity against Penicillium marneffei after 3 to 4 days by agar diffusion method.
Experiment [26] concerns Talaromyces marneffei. Put plainly: Antifungal activity against Penicillium marneffei after 48 hrs by twofold broth dilution method.

One may read the inhibition in vivo as how much of the control response was suppressed.

Structures are written as SMILES.

As for `CCOC(=O)C1(c2ccccc2)CCN(C)CC1` [MEPERIDINE], the Time in the experiment with Mus musculus [1] stood at 16.4 h; in the experiment with Mus musculus [2], 14.3 h.

Turning to `COc1ccc2c(c1)c(CC(=O)O)c(C)n2C(=O)c1ccc(Cl)cc1` [INDOMETHACIN], the inhibition in vivo at 2 mg/kg with Rattus norvegicus [3] was 62.9%.

Turning to `Fc1cc(-c2nc3scc(-c4ccc(Cl)cc4)n3n2)c(Cl)cc1Cl`, the inhibition in vivo at 50 mg/kg in the experiment with Rattus norvegicus [4] was determined as 42.2%. The Time in the experiment with Mus musculus [5] stood at 13.2; with Mus musculus [6] it was 12.9. The “Diameter of inhibition zone” value was 26 mm in the experiment on Staphylococcus aureus [7]; 26 mm with Escherichia coli [9]; 31 mm in the experiment with Pseudomonas aeruginosa [11]; 17 mm in the experiment with Klebsiella pneumoniae [13]; 19 mm in the experiment on Streptococcus pyogenes [15]; 20 mm with Candida albicans [17]. Moreover, the “Diameter of inhibition zone” value with Aspergillus niger [19] was 24 mm; in the experiment with Aspergillus fumigatus [21], 19 mm; in experiment [23], 19 mm; with Talaromyces marneffei [25], 19 mm. The MIC in the experiment with Staphylococcus aureus [8], in the experiment on Escherichia coli [10], in the experiment on Pseudomonas aeruginosa [12], in the experiment on Klebsiella pneumoniae [14], in the experiment with Streptococcus pyogenes [16] and against Candida albicans [18] was 6.25 microg/cm3 in each case. The MIC (with Aspergillus niger [20]; against Aspergillus fumigatus [22]; in [24]; against Talaromyces marneffei [26]) was 6.25 microg/cm3 each time.

For the compound `Fc1ccc(-c2csc3nc(-c4cc(F)c(Cl)cc4Cl)nn23)cc1`, in the experiment with Rattus norvegicus [4], the inhibition in vivo at 50 mg/kg came out at 48.8%. In addition, the Time came out at 8.3 in the experiment with Mus musculus [5] and 8.2 in the experiment on Mus musculus [6]. Moreover, the “Diameter of inhibition zone” value in the experiment on Staphylococcus aureus [7] stood at 18 mm; with Escherichia coli [9], 23 mm; in the experiment on Pseudomonas aeruginosa [11] it was 28 mm; in the experiment on Klebsiella pneumoniae [13] it was 20 mm; in the experiment with Streptococcus pyogenes [15], 21 mm; with Candida albicans [17], 19 mm. The “Diameter of inhibition zone” value is on record as 21 mm in the experiment with Aspergillus niger [19], 29 mm with Aspergillus fumigatus [21], 17 mm in experiment [23] and 21 mm in the experiment with Talaromyces marneffei [25]. The MIC with Staphylococcus aureus [8] came out at 12.5 microg/cm3; in the experiment with Escherichia coli [10] it was 6.25 microg/cm3; against Pseudomonas aeruginosa [12] it was 6.25 microg/cm3; with Klebsiella pneumoniae [14] it was 6.25 microg/cm3; with Streptococcus pyogenes [16] it was 6.25 microg/cm3; against Candida albicans [18], 6.25 microg/cm3. The MIC (with Aspergillus niger [20]; in the experiment with Aspergillus fumigatus [22]; in experiment [24]; in the experiment with Talaromyces marneffei [26]) was 6.25 microg/cm3 each time.
